# Test results as given in patent EP4806891A1 (Kangbaida (Sichuan) Biotechnology Co., Ltd., priority 2023, dated 2025).
# Target: T1, HEK-Blue-hTLR7 cells (Homo sapiens, UniProt Q9NYK1)
# T1 construct: expressed in transfected cells; host or cells: HEK-Blue-hTLR7 cells (HEK293-derived reporter line)
# T1 sequence (Q9NYK1 27-1049): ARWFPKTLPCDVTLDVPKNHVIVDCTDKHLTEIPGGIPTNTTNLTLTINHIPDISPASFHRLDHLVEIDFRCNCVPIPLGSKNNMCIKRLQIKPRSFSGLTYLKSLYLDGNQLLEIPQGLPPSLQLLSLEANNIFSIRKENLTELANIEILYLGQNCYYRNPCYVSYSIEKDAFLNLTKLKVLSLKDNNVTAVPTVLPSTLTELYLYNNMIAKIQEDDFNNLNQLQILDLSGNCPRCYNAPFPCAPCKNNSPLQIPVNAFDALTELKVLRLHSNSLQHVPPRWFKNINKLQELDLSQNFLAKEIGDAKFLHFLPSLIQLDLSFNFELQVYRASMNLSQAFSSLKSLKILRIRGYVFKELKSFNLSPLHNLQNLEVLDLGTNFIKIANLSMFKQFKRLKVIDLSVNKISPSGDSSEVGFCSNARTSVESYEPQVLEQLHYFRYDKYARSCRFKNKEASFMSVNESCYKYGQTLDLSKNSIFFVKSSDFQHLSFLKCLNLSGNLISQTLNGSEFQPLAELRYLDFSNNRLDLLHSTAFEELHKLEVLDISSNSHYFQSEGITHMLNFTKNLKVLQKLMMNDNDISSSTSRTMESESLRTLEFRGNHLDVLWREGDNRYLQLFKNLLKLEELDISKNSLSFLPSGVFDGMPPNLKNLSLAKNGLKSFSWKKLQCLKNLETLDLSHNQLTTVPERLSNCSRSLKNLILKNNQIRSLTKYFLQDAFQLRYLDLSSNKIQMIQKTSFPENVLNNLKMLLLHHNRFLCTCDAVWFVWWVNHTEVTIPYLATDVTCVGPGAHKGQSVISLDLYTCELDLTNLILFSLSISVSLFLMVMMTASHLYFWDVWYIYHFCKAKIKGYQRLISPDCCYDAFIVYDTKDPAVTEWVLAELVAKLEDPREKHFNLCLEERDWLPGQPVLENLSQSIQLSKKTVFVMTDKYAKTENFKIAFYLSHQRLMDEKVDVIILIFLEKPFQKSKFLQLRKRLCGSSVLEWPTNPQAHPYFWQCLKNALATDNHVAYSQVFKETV
# Test: HEK-Blue-hTLR7 cell inhibition assay
# Type: cell-based
# Details: R848 0.8 µM, 16 h, OD 620 nm, read-out: TLR7 IC50
# Method: HEK-Blue-hTLR7/8/9 cell inhibition assay
# 1. HEK-Blue-hTLR7/8 cells (1 × 10^4 cells/well) and HEK-Blue-hTLR9 cells (1.5 × 10^4 cells/well) were seeded in a 384-well cell culture plate, with a volume of 30 µL per well. The plate was incubated at 37°C in a 5% CO2 incubator for 4 h. 2. The compound was prepared with DMSO and diluted in DMEM medium to 10 concentrations (1:3 dilution), with final concentrations of 10000, 3333.3, 1111.1, 370.4, 123.5, 41.2, 13.7, 4.6, 1.5, and 0.5 nM; R848 was prepared with DMSO and diluted in DMEM medium, with final concentrations of 0.8 µM (HEK-Blue-hTLR7) and 3 µM (HEK-Blue-hTLR8); ODN2006 was prepared with endotoxin-free water and diluted in DMEM medium, with a final concentration of 1 µM. 3. Cells treated with DMSO were used as the blank control group, while cells treated solely with Resiquimod (R848) were used as the positive control group for HEK-Blue-hTLR7/8, and cells treated solely with ODN2006 were used as the positive control group for HEK-Blue-hTLR9. Cells treated with the test compound together with R848 or ODN2006 were used as the test group. Two parallel wells were set for each group and were placed at 37°C in a 5% CO2 incubator for incubation. 4. After being incubated for 4 h, the 384-well plate of HEK-Blue-hTLR7/8 was taken out from the incubator, and R848 alone or both R848 and the diluted compound were separately added into each well. The plate was placed at 37°C in a 5% CO2 incubator for incubation for 16 h; the 384-well plate of HEK-Blue-hTLR9 was taken out from the incubator, and ODN2006 alone or both ODN2006 and the diluted compound were added separately to each well. The plate was incubated at 37°C in a 5% CO2 incubator for 16 h. 5. After being incubated for 16 h, the 384-well plate was removed from the incubator and centrifuged at 1000 rpm for 1 minute. The optical density value of each well at 620 nm was measured using a multifunctional microplate reader. 6. The cell inhibition rate was calculated as (1-(OD620 test group-OD620 blank group)/(OD620 positive group-OD620 blank group))×100%, and the half maximal inhibitory concentration (IC50) was calculated through curve fitting. Table 1: Activity of the compounds of the present disclosure in HEK-Blue-hTLR7/8/9 cellular assays
row,IC50 [nM],SMILES
1,< 100,"CN1CCN(c2nnc([C@]34CN(c5ccc(C#N)c6ncccc56)C[C@@]3(C(F)(F)F)C4)o2)CC1 [Compound 1, 5-((1S,5R)-1-(5-(4-methylpiperazin-1-yl)-1,3,4-oxadiazol-2-yl)-5-(trifluoromethyl)-3-azabicyclo[3.1.0]hexan-3-yl)quinoline-8-carbonitrile]"
2,> 1000,"Cc1cc(N2CC3(c4nnc(C5CCN(C)CC5)o4)C[C@]3(C(F)(F)F)C2)c2cnn(C)c2n1 (stereo partly drawn) [Compound 2, 2-((5R)-3-(1,6-dimethyl-1H-pyrazolo[3,4-b]pyridin-4-yl)-5-(trifluoromethyl)-3-azabicyclo[3.1.0]hexan-1-yl)-5-(1-methylpiperidin-4-yl)-1,3,4-oxadiazole]"
3,< 100,"FC(F)(F)c1ccc(N2C[C@]3(c4nnc(C5(F)CCNCC5)o4)C[C@]3(C(F)(F)F)C2)c2cccnc12 [Compound 3, 2-(4-fluoropiperidin-4-yl)-5-((1S,5R)-5-(trifluoromethyl)-3-(8-(trifluoromethyl)quinolin-5-yl)-3-azabicyclo[3.1.0]hexan-1-yl)-1,3,4-oxadiazole]"
4,< 100,"CN1CC(c2nnc([C@]34CN(c5ccc(C(F)(F)F)c6ncccc56)C[C@@]3(C(F)(F)F)C4)o2)C1 [Compound 4, 2-(1-methylazetidin-3-yl)-5-((1S,5R)-5-(trifluoromethyl)-3-(8-(trifluoromethyl)quinolin-5-yl)-3-azabicyclo[3.1.0]hexan-1-yl)-1,3,4-oxadiazole]"
5,< 1000,"CN1CCC(c2nnc([C@]34CN(c5ccc(C#N)c6ncccc56)C[C@@]3(C(F)(F)F)C4)n2C)CC1 [Compound 5, 5-((1S,5R)-1-(4-methyl-5-(1-methylpiperidin-4-yl)-4H-1,2,4-triazol-3-yl)-5-(trifluoromethyl)-3-azabicyclo[3.1.0]hexan-3-yl)quinoline-8-carbonitrile]"
6,< 100,"CN1CCC(Nc2nnc([C@]34CN(c5ccc(C#N)c6ncccc56)C[C@@]3(C(F)(F)F)C4)o2)CC1 [Compound 6, 5-((1S,5R)-1-(5-((1-methylpiperidin-4-yl)amino)-1,3,4-oxadiazol-2-yl)-5-(trifluoromethyl)-3-azabicyclo[3.1.0]hexan-3-yl)quinoline-8-carbonitrile]"
7,< 100,"N#Cc1ccc(N2C[C@]3(c4nnc(N)o4)C[C@]3(C(F)(F)F)C2)c2cccnc12 [Compound 7, 5-((1S,5R)-1-(5-amino-1,3,4-oxadiazol-2-yl)-5-(trifluoromethyl)-3-azabicyclo[3.1.0]hexan-3-yl)quinoline-8-carbonitrile]"
8,< 100,"CN1CCC(c2nnc([C@]34CN(c5ccc(C#N)c6ncccc56)C[C@@]3(C(F)(F)F)C4)[nH]2)CC1 [Compound 9, 5-((1S,5R)-1-(5-(1-methylpiperidin-4-yl)-4H-1,2,4-triazol-3-yl)-5-(trifluoromethyl)-3-azabicyclo[3.1.0]hexan-3-yl)quinoline-8-carbonitrile]"
9,< 100,"N#Cc1ccc(N2C[C@]3(c4nnc(C5CCOCC5)o4)C[C@]3(C(F)(F)F)C2)c2cccnc12 [Compound 12, 5-((1S,5R)-1-(5-(tetrahydro-2H-pyran-4-yl)-1,3,4-oxadiazol-2-yl)-5-(trifluoromethyl)-3-azabicyclo[3.1.0]hexan-3-yl)quinoline-8-carbonitrile]"
10,< 100,"CN1CC2(CCC(c3nnc([C@]45CN(c6ccc(C#N)c7ncccc67)C[C@@]4(C(F)(F)F)C5)o3)CC2)C1 [Compound 13, 5-((1S,5R)-1-(5-(2-methyl-2-azaspiro[3.5]nonan-7-yl)-1,3,4-oxadiazol-2-yl)-5-(trifluoromethyl)-3-azabicyclo[3.1.0]hexan-3-yl)quinoline-8-carbonitrile]"
11,< 100,"CN1CC2CC1CC2c1nnc([C@]23CN(c4ccc(C#N)c5ncccc45)C[C@@]2(C(F)(F)F)C3)o1 (stereo partly drawn) [Compound 14, 5-((1S,5R)-1-(5-(2-methyl-2-azabicyclo[2.2.1]heptan-5-yl)-1,3,4-oxadiazol-2-yl)-5-(trifluoromethyl)-3-azabicyclo[3.1.0]hexan-3-yl)quinoline-8-carbonitrile]"
12,< 100,"CN1CCC(Oc2nnc([C@]34CN(c5ccc(C#N)c6ncccc56)C[C@@]3(C(F)(F)F)C4)o2)CC1 [Compound 15, 5-((1S,5R)-1-(5-((1-methylpiperidin-4-yl)oxy)-1,3,4-oxadiazol-2-yl)-5-(trifluoromethyl)-3-azabicyclo[3.1.0]hexan-3-yl)quinoline-8-carbonitrile]"
13,< 100,"N#Cc1ccc(N2C[C@]3(c4nnc(C5CCN(CC(N)=O)CC5)o4)C[C@]3(C(F)(F)F)C2)c2cccnc12 [Compound 17, 2-(4-(5-((1S,5R)-3-(8-cyanoquinolin-5-yl)-5-(trifluoromethyl)-3-azabicyclo[3.1.0]hexan-1-yl)-1,3,4-oxadiazol-2-yl)piperidin-1-yl)acetamide]"
14,< 100,"CN1CC2(CC(c3nnc([C@]45CN(c6ccc(C#N)c7ncccc67)C[C@@]4(C(F)(F)F)C5)o3)C2)C1 [Compound 19, 5-((1S,5R)-1-(5-(2-methyl-2-azaspiro[3.3]heptan-6-yl)-1,3,4-oxadiazol-2-yl)-5-(trifluoromethyl)-3-azabicyclo[3.1.0]hexan-3-yl)quinoline-8-carbonitrile]"

row,SMILES,IC50 [nM]
1,"CN1CCC(C)(c2nnc([C@]34CN(c5ccc(C#N)c6ncccc56)C[C@@]3(C(F)(F)F)C4)o2)CC1 [Compound 8, 5-((1S,5R)-1-(5-(1,4-dimethylpiperidin-4-yl)-1,3,4-oxadiazol-2-yl)-5-(trifluoromethyl)-3-azabicyclo[3.1.0]hexan-3-yl)quinoline-8-carbonitrile]",< 100
2,"CN1[C@@H]2CC[C@H]1C[C@H](c1nnc([C@]34CN(c5ccc(C#N)c6ncccc56)C[C@@]3(C(F)(F)F)C4)o1)C2 [Compound 11, 5-((1S,5R)-1-(5-((1R,3S,5S)-8-methyl-8-azabicyclo[3.2.1]octan-3-yl)-1,3,4-oxadiazol-2-yl)-5-(trifluoromethyl)-3-azabicyclo[3.1.0]hexan-3-yl)quinoline-8-carbonitrile]",< 100
3,"N#Cc1ccc(N2C[C@]3(c4nnc(C5CC6(CNC6)C5)o4)C[C@]3(C(F)(F)F)C2)c2cccnc12 [Compound 18, 5-((1S,5R)-1-(5-(2-azaspiro[3.3]heptan-6-yl)-1,3,4-oxadiazol-2-yl)-5-(trifluoromethyl)-3-azabicyclo[3.1.0]hexan-3-yl)quinoline-8-carbonitrile]",< 100
4,"N#Cc1ccc(N2C[C@]3(c4nnc([C@H]5CC[C@H](N)CC5)o4)C[C@]3(C(F)(F)F)C2)c2cccnc12 [Compound 20, 5-((1S,5R)-1-(5-((1R,4S)-4-aminocyclohexyl)-1,3,4-oxadiazol-2-yl)-5-(trifluoromethyl)-3-azabicyclo[3.1.0]hexan-3-yl)quinoline-8-carbonitrile]",< 100
